Assays:
barnyardgrass [1] = assay: Test A pre-/postemergence herbicide test; type: in vivo, Echinochloa crus-galli
Summary of the method: (§1)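 Planted in loam–sand blend; treated the same day preemergence by directed soil spray, while separately grown plants at one- to two-leaf stage got postemergence spray. Compared visually with untreated controls after approximately 10 days; 100 means complete control.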

sedge, umbrella [2] = assay: Test C flooded paddy test; type: in vivo, Cyperus difformis; details: Flood
Summary of the method: (§2)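 Plants grown to the 2-leaf stage; pots flooded to 3 cm above soil and compound applied directly into the paddy water, depth kept throughout. Greenhouse 13 to 15 days, then visual rating vs untreated controls on 0–100 scale (0 no effect, 100 complete control); dash means no result.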

giant foxtail = assay: Test A pre-/postemergence herbicide test; type: in vivo, Setaria faberii
Summary of the method: as §1

ragweed = assay: Test A pre-/postemergence herbicide test; type: in vivo, Ambrosia elatior; details: for Plant response rating, Ragweed: 125 g ai/ha
Summary of the method: as §1

galium = assay: Test A postemergence herbicide test; type: in vivo, Galium aparine; details: 125 g ai/ha, visual rating on 0 to 100 scale (0 no effect, 100 complete control), approx. 10 days
Summary of the method: (§3)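 Young potted plants in a loam–sand mix, one- to two-leaf stage and 2–10 cm tall, receive the test chemical postemergence and stay in a greenhouse for approximately 10 days. Injury is then judged by eye against untreated plants, scored 0 (none) to 100 (complete control).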

ryegrass, Italian = assay: Test A pre-/postemergence herbicide test; type: in vivo, Lolium multiflorum; details: for Plant response rating, Ryegrass, Italian: 125 g ai/ha
Summary of the method: as §1

sedge, umbrella [3] = assay: Test B flooded paddy test; type: in vivo, Cyperus difformis; details: 1000 g ai/ha, Flood; scale of 0 to 100 where 0 is no effect and 100 is complete control
Summary of the method: (§4)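 Plants were grown to the 2-leaf stage, then pots were flooded to 3 cm above the soil and compound was applied directly into the paddy water, with that depth held throughout. After 13 to 15 days in a greenhouse, injury was rated visually against untreated controls on a 0 to 100 scale (100 = complete control).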

rice [4] = assay: Test C flooded paddy test; type: in vivo, Oryza sativa; details: Flood
Summary of the method: as §2

barnyardgrass [5] = assay: Test C flooded paddy test; type: in vivo, Echinochloa crus-galli; details: Flood
Summary of the method: as §2

barnyardgrass [6] = assay: Test B flooded paddy test; type: in vivo, Echinochloa crus-galli; details: 1000 g ai/ha, Flood; scale of 0 to 100 where 0 is no effect and 100 is complete control
Summary of the method: as §4

pigweed = assay: Test A pre-/postemergence herbicide test; type: in vivo, Amaranthus retroflexus; details: for Plant response rating, Pigweed: 125 g ai/ha
Summary of the method: as §1

rice [7] = assay: Test B flooded paddy test; type: in vivo, Oryza sativa; details: 1000 g ai/ha, Flood; scale of 0 to 100 where 0 is no effect and 100 is complete control
Summary of the method: as §4

wheat = assay: Test A pre-/postemergence herbicide test; type: in vivo, Triticum aestivum; details: Postemergence, 125 g ai/ha; visual rating on 0 to 100 scale (0 no effect, 100 complete control), approx. 10 days
Summary of the method: as §1

blackgrass = assay: Test A postemergence herbicide test; type: in vivo, Alopecurus myosuroides
Summary of the method: as §3

corn = assay: Test A pre-/postemergence herbicide test; type: in vivo, Zea mays; details: Postemergence
Summary of the method: as §1

ducksalad [8] = assay: Test B flooded paddy test; type: in vivo, Heteranthera limosa; details: 1000 g ai/ha, Flood; scale of 0 to 100 where 0 is no effect and 100 is complete control
Summary of the method: as §4

ducksalad [9] = assay: Test C flooded paddy test; type: in vivo, Heteranthera limosa; details: Flood
Summary of the method: as §2

kochia = assay: Test A pre-/postemergence herbicide test; type: in vivo, Kochia scoparia; details: for Plant response rating, Kochia: 125 g ai/ha
Summary of the method: as §1

giant foxtail (SETFA) = assay: Test H preemergence mixture test (Colby); type: in vivo, Setaria faberii; details: applied alone, 21 d, mean of three replicates, scale 0-100
Source text: (§5) Colby's Equation was used to determine the herbicidal effects expected from the mixtures. Colby's Equation (Colby, S. R. “Calculating Synergistic and Antagonistic Responses of Herbicide Combinations,” Weeds, 15(1), pp 20-22 (1967)) calculates the expected additive effect of herbicidal mixtures and for two active ingredients is of the form: Pa+b=Pa+Pb−(PaPb/100)
(§6) where • Pa+b is the percentage effect of the mixture expected from additive contribution of the individual components: • Pa is the observed percentage effect of the first active ingredient at the same use rate as in the mixture, and • Pb is the observed percentage effect of the second active ingredient at the same use rate as in the mixture. In the following Tables, rates are shown in grams of active ingredient per hectare (g a.i./ha); “Obsd.” is the observed effect. “Exp.” is the expected effect calculated from Colby's Equation.
(§7) This test evaluated the effect of mixtures of compound 80 with several commercial herbicides on four plant species. Seeds of plant species selected from corn (ZEAMD, Zea mays), soybean (GLXMA, Glycine max), waterhemp (common waterhemp, AMATA, Amaranthus rudis), and giant foxtail (SETFA, Setaria faberii) were planted into a silt loam soil and treated preemergence with test chemicals formulated in a non-phytotoxic solvent mixture which included a surfactant and applied using a volume of 281 L/ha. Each treatment was replicated three times. Treated plants and controls were maintained in a greenhouse using supplemental lighting to maintain a photoperiod of about 16 h; daytime and nighttime temperatures were about 24-30° C. and 19-21° C., respectively. Nutrients were applied using a balanced fertilizer applied through the watering system. At 21 d after treatment, all species were compared to controls and visually evaluated. Plant response ratings were calculated as the means of the three replicates, are summarized in Tables H1 through H5, and are based on a scale of 0 to 100 where 0 is no effect and 100 is complete control. A dash (-) response means no test result. The Expected (Exp.) results were calculated using Colby's Equation as described for Test G above.

waterhemp (AMATA) = assay: Test H preemergence mixture test (Colby); type: in vivo, Amaranthus rudis; details: applied alone, 21 d, mean of three replicates, scale 0-100
Source text: as §5, §6, §7

soybean (GLXMA) = assay: Test H preemergence mixture test (Colby); type: in vivo, Glycine max; details: applied alone, 21 d, mean of three replicates, scale 0-100
Source text: as §5, §6, §7

corn (ZEAMD) = assay: Test H preemergence mixture test (Colby); type: in vivo, Zea mays; details: applied alone, 21 d, mean of three replicates, scale 0-100
Source text: as §5, §6, §7

[10] = Postemergence, 125 g ai/ha, visual rating on 0 to 100 scale (0 no effect, 100 complete control), approx. 10 days
[11] = Postemergence, 500 g ai/ha, 0 to 100 scale (0 no effect, 100 complete control)
[12] = Preemergence, 125 g ai/ha, 0 to 100 scale where 0 is no effect and 100 is complete control
[13] = Preemergence, 500 g ai/ha, visual rating on 0 to 100 scale (0 no effect, 100 complete control)
[14] = 125 g ai/ha, scale of 0 to 100 where 0 is no effect and 100 is complete control, 13 to 15 days
[15] = 250 g ai/ha, scale of 0 to 100 where 0 is no effect and 100 is complete control, 13 to 15 days
[16] = Postemergence, visual rating on 0 to 100 scale (0 no effect, 100 complete control), approx. 10 days
[17] = Preemergence, 0 to 100 scale where 0 is no effect and 100 is complete control
[18] = 125 g ai/ha, visual rating on 0 to 100 scale (0 no effect, 100 complete control), approx. 10 days
[19] = 500 g ai/ha, 0 to 100 scale (0 no effect, 100 complete control)

O=C1NCC(c2cccc(C(F)(F)F)c2)C1C(=O)Nc1cccc(Cl)c1F (centres unmarked) [Compound 344]
Plant response rating, Barnyardgrass (barnyardgrass [1]; [10]): 60 | Plant response rating, Barnyardgrass (barnyardgrass [1]; [11]): 90 | Plant response rating, Barnyardgrass (barnyardgrass [1]; [12]): 50 | Barnyardgrass plant response rating (barnyardgrass [1]; [13]): 90 | Plant response rating, Sedge, Umbrella (sedge, umbrella [2]; [14]): 0 | Plant response rating, Sedge, Umbrella (sedge, umbrella [2]; [15]): 0 | Plant response rating, Sedge, Umbrella (sedge, umbrella [2]; 500 g ai/ha, scale 0 to 100): 0 | Plant response rating, Sedge, Umbrella (sedge, umbrella [2]; 1000 g ai/ha, scale 0 to 100): 0 | Plant response rating, Foxtail, Giant (giant foxtail; [10]): 80 | Plant response rating, Foxtail, Giant (giant foxtail; [11]): 90 | Plant response rating, Foxtail, Giant (giant foxtail; [12]): 80 | Foxtail, Giant plant response rating (giant foxtail; [13]): 90 | Plant response rating, Ragweed (ragweed; [16]): 0 | Plant response rating, Ragweed (ragweed; [17]): 0 | Ragweed plant response rating (ragweed; [13]): 0 | Plant response rating, Galium (galium): 0 | Plant response rating, Ryegrass, Italian (ryegrass, Italian; [16]): 0 | Plant response rating, Ryegrass, Italian (ryegrass, Italian; [17]): 0 | Ryegrass, Italian plant response rating (ryegrass, Italian; [13]): 30 | Plant response rating, Sedge, Umbrella (sedge, umbrella [3]): 0 | Plant response rating, Rice (rice [4]; [14]): 0 | Plant response rating, Rice (rice [4]; [15]): 0 | Plant response rating, Rice (rice [4]; 500 g ai/ha, scale 0 to 100): 0 | Plant response rating, Rice (rice [4]; 1000 g ai/ha, scale 0 to 100): 0 | Plant response rating, Barnyardgrass (barnyardgrass [5]; [14]): 0 | Plant response rating, Barnyardgrass (barnyardgrass [5]; [15]): 35 | Plant response rating, Barnyardgrass (barnyardgrass [5]; 500 g ai/ha, scale 0 to 100): 40 | Plant response rating, Barnyardgrass (barnyardgrass [5]; 1000 g ai/ha, scale 0 to 100): 55 | Plant response rating, Barnyardgrass (barnyardgrass [6]): 85 | Plant response rating, Pigweed (pigweed; [16]): 0 | Plant response rating, Pigweed (pigweed; [17]): 0 | Pigweed plant response rating (pigweed; [13]): 0 | Plant response rating, Rice (rice [7]): 10 | Plant response rating, Wheat (wheat): 0 | Plant response rating, Blackgrass (blackgrass; [18]): 0 | Plant response rating, Blackgrass (blackgrass; [19]): 0 | Plant response rating, Corn (corn; [18]): 0 | Plant response rating, Corn (corn; [19]): 0 | Plant response rating, Ducksalad (ducksalad [8]): 90 | Plant response rating, Ducksalad (ducksalad [9]; [14]): 50 | Plant response rating, Ducksalad (ducksalad [9]; [15]): 60 | Plant response rating, Ducksalad (ducksalad [9]; 500 g ai/ha, scale 0 to 100): 65 | Plant response rating, Ducksalad (ducksalad [9]; 1000 g ai/ha, scale 0 to 100): 85 | Plant response rating, Kochia (kochia; [16]): 0 | Plant response rating, Kochia (kochia; [17]): 0 | Kochia plant response rating (kochia; [13]): 0

CCc1cccc(C)c1N(C(=O)CCl)[C@@H](C)COC [S-metolachlor]
SETFA Obsd. (giant foxtail (SETFA); 31 g a.i./ha): 73 | SETFA Obsd. (giant foxtail (SETFA); 125 g a.i./ha): 99 | AMATA Obsd. (waterhemp (AMATA); 31 g a.i./ha): 0 | AMATA Obsd. (waterhemp (AMATA); 125 g a.i./ha): 85 | GLXMA Obsd. (soybean (GLXMA); 31 g a.i./ha): 18 | GLXMA Obsd. (soybean (GLXMA); 125 g a.i./ha): 15 | ZEAMD Obsd. (corn (ZEAMD); 31 g a.i./ha): 13 | ZEAMD Obsd. (corn (ZEAMD); 125 g a.i./ha): 20

CC(C)N(C)S(=O)(=O)NC(=O)c1cc(-n2c(=O)cc(C(F)(F)F)n(C)c2=O)c(F)cc1Cl [Saflufenacil]
SETFA Obsd. (giant foxtail (SETFA); 1 g a.i./ha): 0 | SETFA Obsd. (giant foxtail (SETFA); 31 g a.i./ha): 23 | AMATA Obsd. (waterhemp (AMATA); 1 g a.i./ha): 0 | AMATA Obsd. (waterhemp (AMATA); 31 g a.i./ha): 83 | GLXMA Obsd. (soybean (GLXMA); 1 g a.i./ha): 0 | GLXMA Obsd. (soybean (GLXMA); 31 g a.i./ha): 13 | ZEAMD Obsd. (corn (ZEAMD); 1 g a.i./ha): 20 | ZEAMD Obsd. (corn (ZEAMD); 31 g a.i./ha): 0

Source: US10294202B2, “Pyrrolidinones as herbicides” (FMC Corporation, priority 2013, dated 2019)
